Tested on: SNL rats (heat hyperalgesia)
Assay: Rat SNL heat hyperalgesia assay
Format: in vivo
Conditions: sc, male Sprague Dawley SNL rats, paw withdrawal latency, morphine s.c. 30 min before testing, example 2 per os 60 min before testing, combination ratio example 2:morphine 1:1.56
Description: Rats undergo spinal nerve ligation surgery as described in Kim and Chung (1992) (reference 1). Briefly, rats are anesthetized with isoflurane, the left L5 and L6 are isolated and tightly ligated with 4-0 silk thread. The wound is closed by suturing and applying tissue adhesive. Compound testing is performed at day 9 to day 36 post-surgery.
For behavioral testing, the animals are acclimatized to the test room environment for a minimum of 30 min. In order to assess the degree of hyperalgesia, the animals are placed on a glass surface (maintained at 30° C.), and a heat-source is focused onto the plantar surface of the left paw. The time from the initiation of the heat until the animal withdraws the paw is recorded. Each animal is tested twice (with an interval of 10 min between the two tests). A decrease in Paw Withdrawal Latency (PWL, average of the two tests) relative to naïve animals indicates a hyperalgesic state. The rats with a PWL of at least 2 seconds less than average PWL of Naïve group are selected for compound testing. […]
In order to assess the degree of heat hyperalgesia, the rats were individually placed in Plexiglas boxes on the glass surface (maintained at 30° C.) of a paw thermal stimulator system (Model 390, series 8, IITC Life Science, Woodland Hills, USA) and allowed to acclimate for 30 min. […] Paw withdrawal latencies (PWLs) were calculated as the mean of the two values.

## CC(C)OC(=O)N1CCC(C)(N2CCC(N3C(=O)N[C@H]4CCCC[C@@H]43)CC2)CC1 [Example 02, Propan-2-yl 4-[4-[(3aS,7aS)-2-oxo-3a,4,5,6,7,7a-hexahydro-3H-benzoimidazol-1-yl]-1-piperidyl]-4-methyl-piperidine-1-carboxylate]
  ED50: 2.4 µmol/kg

Source: US8119661B2, “Piperidine derivatives and their use as muscarinic receptor modulators” (AstraZeneca AB, priority 2007, dated 2012)
